Measured values from ChEMBL document CHEMBL2074191, “Electrophysiological characteristics of the proton-coupled peptide transporter PEPT2 cloned from rat brain” (Am J Physiol, 1998).
Each block holds one molecule with its values, some of them ahead of it. Residues, ends and D or L forms follow the SMILES beside them.

Columns and labels:
Type in all cases: functional, cell-based
[1] = biological target: T1, Solute carrier family 15 member 2 (Rattus norvegicus) (UniProt Q63424); test: TP_TRANSPORTER: inhibition of Gly-Sar uptake (Gly-Sar: 30 uM, Ala-Lys: 500 uM) in PEPT2-expressing SK-N-SH cells
T1 sequence (whole entry): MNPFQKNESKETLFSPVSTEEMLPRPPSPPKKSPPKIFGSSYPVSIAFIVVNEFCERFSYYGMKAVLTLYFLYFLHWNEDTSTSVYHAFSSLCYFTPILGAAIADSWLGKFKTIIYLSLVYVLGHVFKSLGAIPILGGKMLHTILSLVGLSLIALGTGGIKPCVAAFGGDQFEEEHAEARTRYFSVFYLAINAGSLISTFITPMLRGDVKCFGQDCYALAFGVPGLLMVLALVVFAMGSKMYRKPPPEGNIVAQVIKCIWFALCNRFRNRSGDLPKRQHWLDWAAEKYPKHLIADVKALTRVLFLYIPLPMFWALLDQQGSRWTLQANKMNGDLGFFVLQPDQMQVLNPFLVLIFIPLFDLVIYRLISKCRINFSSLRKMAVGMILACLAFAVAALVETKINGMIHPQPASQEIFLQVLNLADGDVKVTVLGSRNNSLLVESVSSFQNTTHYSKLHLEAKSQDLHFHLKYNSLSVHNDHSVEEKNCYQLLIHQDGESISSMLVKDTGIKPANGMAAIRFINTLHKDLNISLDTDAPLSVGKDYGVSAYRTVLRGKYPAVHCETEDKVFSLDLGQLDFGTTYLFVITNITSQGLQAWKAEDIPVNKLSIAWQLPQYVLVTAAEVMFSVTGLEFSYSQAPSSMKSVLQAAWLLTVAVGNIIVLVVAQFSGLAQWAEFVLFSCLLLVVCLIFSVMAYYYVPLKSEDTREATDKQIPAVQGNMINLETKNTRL

[2] = biological target: T1, Solute carrier family 15 member 2 (Rattus norvegicus); test: (§1) TP_TRANSPORTER: uptake in PEPT2-expressing HeLa cells
[3] = biological target: T1, Solute carrier family 15 member 2 (Rattus norvegicus); test: TP_TRANSPORTER: inhibition of Gly-Sar uptake (Gly-Sar: 30 uM, Ala-Glu: 500 uM) in PEPT2-expressing SK-N-SH cells
[4] = biological target: T1, Solute carrier family 15 member 2 (Rattus norvegicus); test: TP_TRANSPORTER: inhibition of Gly-Sar uptake (Gly-Sar: 30 uM, Ala-Val: 500 uM) in PEPT2-expressing SK-N-SH cells
[5] = biological target: T2, Solute carrier family 15 member 2 (Rattus norvegicus, UniProt Q63424); test: TP_TRANSPORTER: inhibition of Gly-Sar uptake (Gly-Sar: 10 uM) in PEPT2-expressing SK-N-SH cells
T2 sequence (Q63424 whole entry): T1 sequence (whole entry)

[6] = substrate: CN(CC(=O)O)C(=O)CN; test: as §1

Activity [1]: inhibitor [+]
Molecule: C[C@H](N)C(=O)N[C@@H](CCCCN)C(=O)O (H-Ala-Lys-OH)

Activity [2]: substrate [+]
Molecule: NCC(=O)N[C@@H](Cc1ccccc1)C(=O)O (H-Gly-Phe-OH)

Activity [2]: substrate [+]
Molecule: NCC(=O)NCC(=O)O (H-Gly-Gly-OH)

Activity [3]: inhibitor [+]
Molecule: C[C@H](N)C(=O)N[C@@H](CCC(=O)O)C(=O)O (H-Ala-Glu-OH)

Activity [4]: inhibitor [+]
Molecule: CC(C)[C@H](NC(=O)[C@H](C)N)C(=O)O (H-Ala-Val-OH)

IC50 [5]: 3 mM
Molecule: CC(=O)N[C@@H](CC(=O)O)C(=O)N[C@@H](CCC(=O)O)C(=O)O [ISOSPAGLUMIC ACID] (Ac-Asp-Glu-OH)

Activity [2]: substrate [+]
Molecule: NCC(=O)N1CCC[C@H]1C(=O)O (H-Gly-Pro-OH)

B1: Solute carrier family 15 member 2 (Rattus norvegicus), Q63424 (protein)
chain: T1 sequence (whole entry)
Km [6]: 35 µM
